Measurements taken from patent publication US20110305637A1, “RADIOLABELLED PDE10 LIGANDS” (Janssen Pharmaceutica N.V., priority 2009, published 2011).

Key:
[1] = Plasma metabolite analysis; format: in vivo; details: rat plasma, 60 min p.i.
Experimental: The metabolic stability of [^18F]B-1 was studied in normal rats by determination of the relative amounts of parent tracer and metabolites in the blood at 1 hour p.i. of the tracer. After intravenous (i.v.) administration of about 19 MBq [^18F]B-1 via tail vein under anesthesia (2.5% Isoflurane in O2 at 1 L/min flow rate), rats were sacrificed by decapitation at 60 min p.i. (n=2). Blood was collected in heparin containing tubes (4.5 mL LH PST tubes; BD vacutainer, BD, Franklin Lakes, N.J., USA) and immediately centrifuged for 10 min at 3000 rpm to separate the plasma. […] After passing through UV detector (254 nm), the HPLC eluate was collected as 1-mL fractions using an automatic fraction collector and the radioactivity of these fractions was measured in the γ-counter.
The metabolic stability was assessed in plasma collected from normal rats (n=2) 60 min post injection of [^18F]B-1 using RP-HPLC. […]
The metabolic stability of [^18F]B-2 was studied in normal rats by determination of the relative amounts of parent tracer and metabolites in the blood at 1 hour p.i. of the tracer. […] After passing through UV detector (254 nm), the HPLC eluate was collected as 1-mL fractions using an automatic fraction collector and the radioactivity of these fractions was measured in the γ-counter. […]

[2] = Brain metabolite analysis (cerebrum, cerebellum, not perfused); format: in vivo, rat; details: 60 min p.i.
Experimental: (§1) From the same animals that were used for plasma analysis, brain was also dissected and rinsed with saline (Mini Plasco®, Braun, Melsungen, Germany) to rinse off the blood. Cerebrum and cerebellum were collected separately and homogenized in 3 mL and 2 mL of acetonitrile, respectively, for about 3 min. A volume of 1 mL of this homogenate was diluted with an equal volume of water and a part of this homogenate was filtered through 0.22 μm filter (Millex®-GV, Millipore, Ireland). About 0.5 mL of the filtrate was spiked with 5 μL of non-radioactive B-1 solution (1 mg/mL) and then injected on to HPLC, which was connected with an XBridge™ column (C18, […], 3 mm×100 mm, Waters) eluted with mixtures of 0.05 M sodium acetate buffer pH 5.5 and acetonitrile (60:40 v/v) at a flow rate of 0.8 mL/min. Similar to the plasma analysis, the HPLC eluate was collected as 1-mL fractions after passing through UV detector, and the radioactivity in the fractions was measured using the automated gamma counter.
(§2) Based on their higher hydrophilicity we can expect that these radiometabolites may not cross the blood brain barrier (BBB). However, in order to rule out the presence or entry of these metabolites to the brain, we have also analyzed cerebrum and cerebellum samples of rats after isolation and subsequent homogenization at 60 min after injection of [^18F]B-1 (n=2).
as §1, with “of non-radioactive B-2 solution (1” for “of non-radioactive B-1 solution (1”, “and acetonitrile (65:35 v/v) at” for “and acetonitrile (60:40 v/v) at”, “passing through the UV detector,” for “passing through UV detector,”
as §2, with “BBB.” for “the blood brain barrier (BBB).”, “[^18F]B-2” for “[^18F]B-1”

Q: For `[18F]CCCn1cc(-c2ccncc2)c(-c2ccc(OCc3ccc4ccccc4n3)cc2)n1` [[^18F]B-1], which “Relative percentage of apolar metabolite(s)/components” value [1] is on record?
A: 1.6 ± 1.5%

Q: What about the “Relative percentage of apolar metabolite(s)” value ([2]; rat cerebellum) of the same compound?
A: 1.4 ± 0.9%

Q: What about the “Relative percentage of polar metabolite(s)” value ([2]; rat cerebellum) of the same compound?
A: 15.3 ± 1.8%

Q: What about the “Relative percentage of apolar metabolite(s)” value ([2]; rat cerebrum) of the same compound?
A: 0.3 ± 0.0%

Q: What about the “Relative percentage of polar metabolite(s)” value ([2]; rat cerebrum) of the same compound?
A: 6.6 ± 2.9%
